# What was measured:
# [1] = in vitro; conditions: pH 7.4, In Vitro Measured Papp
# [2] = test system: porcine brain endothelial cell (PBEC) co-culture model
# [3] = Stability in simulated gastric fluid; type: in vitro ADME; conditions: simulated gi fluid, pH 1.2
# Procedure: Stability in simulated gastric fluid: A stock solution of fosmetpantotenate or its individual diastereomers was prepared in 0.1% formic acid in methanol. Simulated gastric fluid, pH 1.2, was prepared with 2 g/L sodium chloride, 3.2 g/L of pepsin, and 0.7% (v/v) HCl. Gastric buffer, pH 1.2, was prepared containing 2 g/L sodium chloride and 0.7% (v/v) HCl. An appropriate aliquot of fosmetpantotenate or individual diastereomers to yield an initial concentration of 10 μM was added to both fluids, and samples were mixed at ~25°C on an orbital shaker. Aliquots (50 μL) were taken at 0, 2, and 4 h; added to 150 μL dimethyl sulfoxide (DMSO) containing an analytical internal standard; vortexed; and analyzed immediately by LC-MS/MS.
# (§1) Bioanalysis for determinations of analyte stability: Samples were analyzed using a benchtop tandem quadrupole detector (TQD) mass spectrometer (Waters Ltd, Centennial Park, Hertfordshire). […] Suitable retention and peak shape with separation of the 2 diastereomers were obtained. The chromatography column was a Phenomenex-Kinetex XB C18 (2.10 x 50 mm; 2.6 μm), with a 0.7 mL/min flow rate and a 2 μL injection volume. […] The gradient was initiated with 20% B and increased linearly, reaching 40% B at 0.6 min, followed by 50% B at 0.8 min and by 95% B at 0.9 min. Conditions were kept isocratic through 1.2 min, returned to starting conditions (20% B) at 1.25 min, and maintained at 20% B through 1.5 min before the next injection. Since fosmetpantotenate is a mixture of diastereomers which are resolved chromatographically, the fosmetpantotenate MRM area corresponds to the sum of the MRM areas of the individual diastereomers.
# (§2) The percent of compound remaining was determined from the MRM area response in each sample relative to that in the T = 0 samples (normalized for internal standard). Natural log plots of the percent compound remaining over time were used to determine the t½ of compound disappearance using the relationship t½ = -0.693/λ, where λ is the slope of the natural logarithm of the percent compound remaining vs time curve.
# [4] = Metabolic stability in mouse whole blood; type: in vitro ADME; conditions: mouse, blood
# Procedure: (§3) Metabolic stability in blood and liver microsomes: Fosmetpantotenate or its individual diastereomers (5 μM, n = 2, 37°C) were incubated in mouse, rat, cynomolgus monkey, and human whole blood. Samples (50 μL) were taken at 0, 5, 15, 30, and 60 min. Incubations of fosmetpantotenate or its individual diastereomers (1 μM, n = 2, 37°C) in pooled liver microsomes (0.25 mg protein/mL in 0.1 M phosphate buffer pH 7.4) were initiated with the addition of nicotinamide adenine dinucleotide phosphate (NADPH; 1 mM). Aliquots (100 μL) were obtained at 0, 5, 10, 20, and 40 min and added to 150 μL of 0.1% formic acid in acetonitrile-containing carbamazepine (0.5 μM) as an analytical internal standard, centrifuged, and the supernatants analyzed by LC-MS/MS.
# as §1, §2
# [5] = Microdialysis (brain striatal dialysate) in C57Bl6 mice; conditions: striatal dialysate; oral dose at 700 mg/kg; all samples; 700 mg/kg
# Procedure: Mice were anesthetized using isoflurane (2%, 800 mL/min O2).
# For oral dosing experiments, MetaQuant microdialysis probes (regenerated cellulose membrane, BrainLink, the Netherlands) were inserted into the striatum (3 mm exposed surface). Coordinates for the tips of the probes for mice were anterior-posterior (AP) = +0.8 mm from bregma, lateral (L) = -1.7 mm from midline, and ventral (V) = -4.0 mm from dura, the toothbar set at 0 mm.
# Microdialysis animal dosing and sample collection: Adult non-fasted male C57Bl6 mice (20–29 g; Harlan Laboratories, Livermore, CA), and Macaca fascicularis (4–9 kg, 3–6 yr old) were used for the experiments. For oral dosing, fosmetpantotenate was formulated as a solution in 20% hydroxypropyl-beta-cyclodextrin in 50 mM citrate buffer in water pH 5.0 and administered using a dose volume of 10 mL/kg. Mice (N = 6 serially sampled) received fosmetpantotenate as a single oral dose at 700 mg/kg and monkeys received a single oral dose at either 100 mg/kg (N = 4 serially sampled) or 300 mg/kg (N = 2 serially sampled).
# Microdialysis: On the morning of the microdialysis experiment, a MetaQuant probe was inserted into the guide shaft targeting the head of the caudate nucleus and perfused at a rate of 0.15 μL/min aCSF containing 0.2% (w/v) BSA, with a carrier flow of 0.8 μL/min of ultrapure water.
# A single 30 min pre-dose basal dialysate sample was collected from mice over -0.5 to 0 h, and three 30 min basal samples from monkeys over -1.5 to 0 h. Fosmetpantotenate was administered at t = 0, and 30 min dialysate samples were collected for an additional 4 h for mice and 3 h for monkeys.
# Sample preparation for mouse dialysate samples: Concentrations of fosmetpantotenate, PA, and PPA in mouse dialysate were determined by Nextcea, Inc, Woburn, MA, using LC-MS/MS. Standard curves and QC samples containing fosmetpantotenate (D1 and D2) and the surrogate analytes for PA and PPA (^15N/^13C3-PA and ^15N/^13C3-PPA) were prepared fresh in 0.1% formic acid in water. Frozen study mouse dialysate samples were thawed in ice/water bath. Standards, QC samples, and thawed study dialysate samples (20 μL) were mixed with 20 μL 0.1% formic acid in water containing internal standard (50 ng/mL of ^15N/^13C3-fosmetpantotenate) and analyzed by LC-MS/MS.
# LC-MS/MS analysis for mouse dialysate samples: Concentrations of fosmetpantotenate, PA, and PPA in dialysate from mice were determined by using LC-MS/MS conditions described for blood PK analysis by Nextcea, except dialysate samples were analyzed using an ACIEX API 5000 and flow rate was increased to 0.6 mL/min.
# Quantitation of in vivo samples: Peak areas were integrated using Analyst software (AB Sciex, Concord, Ontario, Canada). Calibration curves for all blood samples from mouse and rat PK studies and mouse dialysate samples were prepared by plotting the analyte to internal standard (^15N/^13C3-fosmetpantotenate) peak area ratio vs concentration.
# [6] = Metabolic stability in rat whole blood; type: in vitro ADME; conditions: rat, blood
# Procedure: as §3, §1, §2
# [7] = Metabolic stability in human whole blood; type: in vitro ADME; conditions: human, blood
# Procedure: as §3, §1, §2
# [8] = Metabolic stability in monkey whole blood; type: in vitro ADME, cynomolgus monkey; conditions: monkey, blood
# Procedure: as §3, with “Samples (50 μL) were taken at 0, 5, 15, 30, and 60 min.” left out
# as §1, §2
# [9] = test system: liver and brain CoA; experiment: Labeled experiments: incorporation of isotopically labeled fosmetpantotenate into CoA; type: in vivo, mouse; conditions: for Liver CoA (%) +4 AMU / Liver CoA (%) +6 AMU / Liver CoA (%) Unlabeled: 500 mg/kg PO
# From the text: Fosmetpantotenate was labeled with three ^13C and one ^15N in the PA moiety and with one ^18O in the phosphate moiety, as indicated in Fig 10. The premise of this experiment is the following: if PPA incorporated into CoA originates from fosmetpantotenate metabolism, then all isotope labels (including the ^18O) will be retained in the CoA molecule, resulting in an increase in molecular weight of 6 atomic mass units (AMU) with respect to unlabeled CoA ([M+H]^+ = 774.3 vs 768.3, respectively; Fig 10, Path A). However, if fosmetpantotenate is hydrolyzed to PA, and PA is then re-phosphorylated by WT PanK to yield PPA, or if the ^18O is exchanged with water, then the ^18O would be lost in the process, resulting in a CoA molecule with a 4-AMU increase in molecular weight over unlabeled CoA ([M+H]^+ = 772.3 vs 768.3, respectively, […], Path B). CoA derived from endogenous PA/PPA will have the unchanged molecular weight ([M+H]^+ = 768.3).
# Animal phase: C57BL6N mice, 8-week old and 19 to 21 g obtained from Charles River (Como, Italy) were used in these studies. One group of mice (N = 3 per time point) received a single oral dose of 500 mg/kg isotopically labeled fosmetpantotenate dissolved in 20% hydroxypropyl-β-cyclodextrin. Another set of mice (N = 8 per time point) received a direct administration of isotopically labeled fosmetpantotenate at 125 μg (25 mg/mL of aCSF containing 147 mM NaCl, 3.0 mM KCl, 1.2 mM CaCl2, and 1.2 mM MgCl2) via cannula into striatum. Brain, liver, and blood samples were collected at pre-dose, 6 h, 12 h (brain only), and 24 h, and were snap frozen in liquid nitrogen.
# Two additional groups of mice (N = 6 per time point for each group) received 3 daily doses (8 am, 2 pm, and 8 pm to mimic an anticipated human dosing schedule) of isotopically labeled fosmetpantotenate at either 1.25 μg (0.625 mg/mL aCSF) or 12.5 μg (6.25 mg/mL aCSF) via ICV infusion cannula (2 μL), for up to 10 consecutive days. Brain (striatum) samples were collected at pre-dose, and at 12 h following the third dose on days 1, 3, 7, and 10, and were snap frozen in liquid nitrogen.
# Sample processing: Brain (striatum) and liver tissues were homogenized in a Precellys homogenizer (Bertin technologies, Montigny-le-Bretonneux, France) with 3 volumes of water for each volume of tissue (1:4 dilution). Protein was precipitated by adding 500 μL methanol to 100 μL of homogenate (1:6 dilution), mixed well, and centrifuged. Blood cells (1 volume) were treated with 1:8 v:v water:methanol (1:10 dilution), mixed, and centrifuged. The supernatants (200 μL for brain and blood cells and 100 μL for liver) were dried under nitrogen, reconstituted with 100 μL ammonium acetate 10 mM (pH ~5), and injected (10 μL) into the LC for high resolution mass spectrometry (HRMS) analyses.
# CoA determination: An Acquity UPLC (Waters) system was used. Samples were chromatographed on a Luna C18 column (50 x 2.0 mm; 5 μm), with a 0.4 mL/min flow rate and a 10 μL injection volume. The mobile phases were (A), 10 mM ammonium acetate in water, pH 6.8 and (B) acetonitrile:2-propanol (9:1; v:v). The gradient was started with 2% (B) and was increased linearly to reach 20% (B) at 5 min; the gradient was ramped to reach 90% (B) at 5.1 min and kept isocratic at 90% (B) through 7.1 min.
# The detector was a Waters QTOF Synapt mass spectrometer, with an electrospray ion source operating in the positive scanning mode acquiring in full scan mode (accuracy <5 ppm). The following exact masses were determined: 768.1230 for CoA, 772.1301 for CoA +4 AMU, and 774.1344 for CoA +6 AMU.
# The CoA levels obtained by MS/MS analyses were corrected for ^18O isotopic incorporation. CoA levels were not adjusted for the 1% and 2% of ^12C and ^14N, respectively, in the labeled fosmetpantotenate. […]
compound,measurement,setting,value
Cn1c(=O)c2c(ncn2C)n(C)c1=O [Caffeine],Papp at 1 h,[1],34.3 ± 3.1 ×10⁻⁶ cm/s
"OC[C@@H](O)[C@@H](O)[C@H](O)[C@H](O)CO [Mannitol, reference compound]",blood-brain barrier permeability classification,[2],low end of permeability range
same,Papp at 1 h,[1],2.2 ± 0.7 ×10⁻⁶ cm/s
"COC(=O)CCNC(=O)[C@H](O)C(C)(C)COP(=O)(N[C@@H](C)C(=O)OC)Oc1ccccc1 (single isomer, unassigned) [Compound D2]",half-life (t½) in simulated gastric fluid,[3],> 600 min
same,Mean half-life,[4],<5 min
same,Percentage Remaining,[4]; 0 h,100%
same,Percentage Remaining,[4]; 5 min,1%
same,Percentage Remaining,[4]; 0.25 h,1%
same,In Vitro Measured Papp,[2],4.0 ± 1.3 10^−6 cm/s
same,Dialysate Conc,[5],< 3.36 nM
same,Mean half-life,[6],<5 min
same,Percentage Remaining,[6]; 0 h,100%
same,Percentage Remaining,[6]; 0.5 h,0%
same,Percentage Remaining,[6]; 1 h,0%
same,Mean half-life,[7],>95 min
same,Percentage Remaining,[7]; 0 h,100%
same,Mean half-life,[8],17 min
same,Percentage Remaining,[8]; 0 h,100%
same,Percentage Remaining,[8]; 2 h,1%
COC(=O)C(C)NP(=[18O])(OCC(C)(C)C(O)C(=O)[15NH][13CH2][13CH2][13C](=O)OC)Oc1ccccc1 (centres unmarked) [isotopically-labeled fosmetpantotenate],Brain CoA (%) +4 AMU,"[9]; 1.25 μg ICV, dose day 3",0%
same,Brain CoA (%) +6 AMU,"[9]; 1.25 μg ICV, dose day 3",0%
same,Brain CoA (%) Unlabeled,"[9]; 1.25 μg ICV, dose day 3",100%
same,Brain CoA (%) +4 AMU,"[9]; 1.25 μg ICV, dose day 7",5%
same,Brain CoA (%) +6 AMU,"[9]; 1.25 μg ICV, dose day 7",4%
same,Brain CoA (%) Unlabeled,"[9]; 1.25 μg ICV, dose day 7",91%
same,Brain CoA (%) +4 AMU,"[9]; 1.25 μg ICV, dose day 10",8%
same,Brain CoA (%) +6 AMU,"[9]; 1.25 μg ICV, dose day 10",6%
same,Brain CoA (%) Unlabeled,"[9]; 1.25 μg ICV, dose day 10",86%
same,Brain CoA (%) +4 AMU,"[9]; 12.5 μg ICV, dose day 3",8%
same,Brain CoA (%) +6 AMU,"[9]; 12.5 μg ICV, dose day 3",15%
same,Brain CoA (%) Unlabeled,"[9]; 12.5 μg ICV, dose day 3",77%
same,Brain CoA (%) +4 AMU,"[9]; 12.5 μg ICV, dose day 7",14%
same,Brain CoA (%) +6 AMU,"[9]; 12.5 μg ICV, dose day 7",27%
same,Brain CoA (%) Unlabeled,"[9]; 12.5 μg ICV, dose day 7",59%
same,Brain CoA (%) +4 AMU,"[9]; 12.5 μg ICV, dose day 10",16%
same,Brain CoA (%) +6 AMU,"[9]; 12.5 μg ICV, dose day 10",28%
same,Brain CoA (%) Unlabeled,"[9]; 12.5 μg ICV, dose day 10",56%
same,Brain CoA (%) +6 AMU,"[9]; 12.5 μg ICV, dose day 10, listed as isotopically labeled-fosmetpantotenate",~ 30%
same,Brain CoA (%) +4 AMU,"[9]; 125 μg intrastriatally, 6 h",2.8%
same,Brain CoA (%) +6 AMU,"[9]; 125 μg intrastriatally, 6 h",36.2%
same,Brain CoA (%) Unlabeled,"[9]; 125 μg intrastriatally, 6 h",61%
same,Brain CoA (%) +4 AMU,"[9]; 125 μg intrastriatally, 12 h",3.6%
same,Brain CoA (%) +6 AMU,"[9]; 125 μg intrastriatally, 12 h",46.4%
same,Brain CoA (%) Unlabeled,"[9]; 125 μg intrastriatally, 12 h",50%
same,Brain CoA (%) +4 AMU,"[9]; 125 μg intrastriatally, 24 h",4.3%
same,Brain CoA (%) +6 AMU,"[9]; 125 μg intrastriatally, 24 h",50.7%
same,Brain CoA (%) Unlabeled,"[9]; 125 μg intrastriatally, 24 h",45%
same,Brain CoA (%) +6 AMU,"[9]; 125 μg intrastriatally, 24 h, listed as isotopically labeled-fosmetpantotenate",~ 50%
same,Liver CoA (%) +4 AMU,[9]; 6 h,1.4%
same,Liver CoA (%) +6 AMU,[9]; 6 h,40%
same,Liver CoA (%) Unlabeled,[9]; 6 h,58.6%
same,Liver CoA (%) +6 AMU,"[9]; 6 h, listed as isotopically labeled-fosmetpantotenate",~ 40%
same,Liver CoA (%) +4 AMU,[9]; 24 h,8.4%
same,Liver CoA (%) +6 AMU,[9]; 24 h,34%
same,Liver CoA (%) Unlabeled,[9]; 24 h,58%
same,Liver CoA (%) +4 AMU,"[9]; 24 h, listed as isotopically labeled fosmetpantotenate",8%
same,incorporation of fosmetpantotenate-derived PPA in brain CoA,[9]; 500 mg/kg single oral administration,not observed
"N[C@@H](Cc1ccc(O)c(O)c1)C(=O)O [L-DOPA, S-3,4-dihydroxyphenylalanine, reference compound]",blood-brain barrier permeability classification,[2],moderate permeability range
same,Papp at 1 h,[1],5.8 ± 1.9 ×10⁻⁶ cm/s

# — publication PMC5844530, “Fosmetpantotenate (RE-024), a phosphopantothenate replacement therapy for pantothenate kinase-associated neurodegeneration: Mechanism of action and efficacy in nonclinical models” (PLoS ONE, 2018)
